In patent publication US6855667B2, “Method for safening crops from the phytotoxic effects of herbicides by use of phosphorated esters” (priority 2000, dated 2005):

What was measured:
Type in all cases: in vivo
cotton (DPL 61) = experiment: Clomazone injury and dietholate safening of cotton, growth chamber, percent injury vs untreated control; conditions: for Percent Injury: 14 days
Description: (§1) The compounds and compositions of the present invention were tested as water/surfactant solutions on two corn varieties (Pioneer 3733 and Pioneer 3876) and one variety (DPL 61) of cotton. In one embodiment, the safening compound and herbicidal compound were sprayed in admixture as a tank mix onto flats of corn or cotton seeds arranged in a randomized, block design. In another embodiment, the safening compound was applied to the plant seeds by placing the safening compound and the plant seeds in a screw-capped jar, which was rolled on its side until dispersion of the safening compound was complete. Optionally, a sticker compound, for example, without limitation, water or carboxymethylcellulose, can be used to adhere the safening compound to the plant seeds. The treated plant seeds were planted and immediately sprayed with herbicidal compound as described hereinabove. There were four replicates for each rate of application. The emerging corn and cotton plants were maintained in a growth chamber for 14 days after which time they were evaluated for percent injury as compared to an untreated control.

corn (Pioneer 3733) = experiment: Clomazone injury and dietholate safening of corn, variety Pioneer 3733; conditions: 14 days
Description: as §1

corn (Pioneer 3876) = experiment: Clomazone injury and dietholate safening of corn, variety Pioneer 3876; conditions: 14 days
Description: as §1

[1] = system: two corn varieties (Pioneer 3733 and Pioneer 3876); experiment: Clomazone injury and dietholate safening of corn, both varieties together; conditions: clomazone without the safening compound dietholate
Description: as §1, with “control. […]” for “control.”

## CC1(C)CON(Cc2ccccc2Cl)C1=O [Clomazone, 2-[(2-chlorophenyl)methyl]-4,4-dimethyl-3-isoxazolidinone]
Cotton (DPL 61); clomazone 0.25 kg/ha alone
  Percent Injury: 46%
Cotton (DPL 61); clomazone 0.50 kg/ha alone
  Percent Injury: 77%
Cotton (DPL 61); clomazone 1.0 kg/ha alone
  Percent Injury: 91%
Cotton (DPL 61); clomazone without the safening compound dietholate
  injury to cotton (in words): significant injury
Corn (Pioneer 3733); clomazone 0.06 kg/ha alone
  Percent Injury: 2%
Corn (Pioneer 3733); clomazone 0.12 kg/ha alone
  Percent Injury: 28%
Corn (Pioneer 3733); clomazone 0.24 kg/ha alone
  Percent Injury: 75%
Corn (Pioneer 3876); clomazone 0.06 kg/ha alone
  Percent Injury: 1%
Corn (Pioneer 3876); clomazone 0.12 kg/ha alone
  Percent Injury: 15%
Corn (Pioneer 3876); clomazone 0.24 kg/ha alone
  Percent Injury: 59%
[1]
  injury to corn (in words): significant injury
